Values quoted from earlier work as cited in patent US9040672B2, “Devices and methods for reducing matrix effects” (Agilent Technologies, Inc., priority 2007, dated 2015).

Settings: octanol-water partition coefficient

Structure (SMILES) | Log P
NC(=O)N1c2ccccc2C=Cc2ccccc21 [carbamazepine] | 2.69
CC[C@@H]([C@H](C)O)n1ncn(-c2ccc(N3CCN(c4ccc(OC[C@@H]5CO[C@@](Cn6cncn6)(c6ccc(F)cc6F)C5)cc4)CC3)cc2)c1=O [posaconazole] | 5.66
